1 compound from patent US20210179620A1, “MESOIONIC I[…] AND DERIVATIVES FOR COMBATING ANIMAL PESTS” (BASF SE, priority 2017, published 2021) can be followed below.

What is called mortality is the percentage killed.

In test [1] the test system is vetch aphid (Megoura viciae). Nature of the test: Vetch aphid contact or systemic test, broad bean leaf disks in 24-well microtiter plates. The class given is in vivo. To be noted: foliar, 120 h, sprayed broad bean leaf disks, adult aphids, 5 days, read-out: mortality in comparison with untreated controls. Here is the method: Vetch Aphid (Megoura viciae):
For evaluating control of vetch aphid (Megoura viciae) through contact or systemic means the test unit consisted of 24-well-microtiter plates containing broad bean leaf disks.
The compounds were formulated using a solution containing 75% v/v water and 25% v/v DMSO. Different concentrations of formulated compounds were sprayed onto the leaf disks at 2.5 μl, using a custom built micro atomizer, at two replications. After application, the leaf disks were air-dried and 5-8 adult aphids placed on the leaf disks inside the microtiter plate wells. The aphids were then allowed to suck on the treated leaf disks and incubated at about 23+1° C. and about 50+5% relative humidity for 5 days. Aphid mortality and fecundity was then visually assessed.

Test [2] concerns green peach aphid (Myzus persicae). Nature of the test: Green peach aphid systemic test, artificial diet in 96-well microtiter plates. The test is classed as in vivo. The following applies: 72 h, adult aphids on treated artificial diet, 3 days, read-out: mortality in comparison with untreated controls. The text has this: Green Peach Aphid (Myzus persicae):
For evaluating control of green peach aphid (Myzus persicae) through systemic means the test unit consisted of 96-well-microtiter plates containing liquid artificial diet under an artificial membrane.
The compounds were formulated using a solution containing 75% v/v water and 25% v/v DMSO. Different concentrations of formulated compounds were pipetted into the 30 aphid diet, using a custom built pipetter, at two replications.
After application, 5-8 adult aphids were placed on the artificial membrane inside the microtiter plate wells. The aphids were then allowed to suck on the treated aphid diet and incubated at about 23˜1° C. and about 50˜5% relative humidity for 3 days. Aphid mortality and fecundity was then visually assessed.

A value given as a limit tells only on which side of the number the result lay.

As to `Cn1c(C(=O)CCl)c([O-])[n+]2c1SCC2c1cnc(Cl)s1` (centres unmarked) [C-1, 6-(2-chloroacetyl)-3-(2-chlorothiazol-5-yl)-7-methyl-2,3-dihydroimidazo[2,1-b]thiazol-4-ium-5-olate], the mortality at 2500 ppm in test [1] and in test [2] was > 75% each time.
